IC50 data for seven compounds are collected here from patent publication US5516779A, “17β-substituted-6-azasteroid derivatives useful as 5α-reductase inhibitors” (Merck & Co., Inc., priority 1994, dated 1996).

Usually IC50 stands for the midpoint of a concentration-inhibition curve.

The first experiment deals with T1, 5α-reductase type 1 (Homo sapiens, UniProt P18405).
T1 construct: Samples of human tissue were pulverized using a freezer mill and homogenized; from tissue; host or cells: human scalp tissue, crude nuclear pellet
T1 sequence (P18405 1-259): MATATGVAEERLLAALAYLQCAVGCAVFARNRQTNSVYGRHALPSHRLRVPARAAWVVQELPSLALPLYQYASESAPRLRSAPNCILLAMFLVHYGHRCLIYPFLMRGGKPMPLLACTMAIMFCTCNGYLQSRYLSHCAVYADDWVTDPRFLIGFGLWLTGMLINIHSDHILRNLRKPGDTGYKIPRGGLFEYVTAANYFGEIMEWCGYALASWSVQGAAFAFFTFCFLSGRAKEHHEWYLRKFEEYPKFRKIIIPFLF
Description: Inhibition of 5α-reductase type 1 (conversion of testosterone to DHT, human scalp homogenate). It counts as biochemical.
Conditions: not given
The procedure: Samples of human tissue were pulverized using a freezer mill and homogenized in 40 mM potassium phosphate, pH 6.5, 5 mM magnesium sulfate, 25 mM potassium chloride, 1 mM phenylmethylsulfonyl fluoride, 1 mM dithiothreitol (DTT) containing 0.25 M sucrose using a Potter-Elvehjem homogenizer. A crude nuclear pellet was prepared by centrifugation of the homogenate at 1,500 x g for 15 min. The crude nuclear pellet was washed two times and resuspended in two volumes of buffer. Glycerol was added to the resuspended pellet to a final concentration of 20%. The enzyme suspension was frozen in aliquots at -80° C. The prostatic and scalp reductases were stable for at least 4 months when stored under these conditions.
The reaction mixture for the type 1 5α-reductase contained 40 mM potassium phosphate, pH 6.5, […] [7-^3 H]-testosterone, 1 mM dithiothreitol and 500 µM NADPH in a final volume of 100 μl. The reaction mixture for the type 2 5α-reductase contained 40 mM sodium citrate, pH 5.5, 0.3 mM [7-^3 H]-testosterone, 1 mM dithiothreitol and 500 µM NADPH in a final volume of 100 μl. Typically, the assay was initiated by the addition of 50-100 μg prostatic homogenate or 75-200 μg scalp homogenate and incubated at 37° C. After 10-50 min. the reaction was quenched by extraction with 250 μl of a mixture of 70% cyclohexane: 30% ethyl acetate containing 10 μl each DHT and T. The aqueous and organic layers were separated by centrifugation at 14,000 rpm in an Eppendorf microfuge. The organic layer was subjected to normal phase HPLC (10 cm Whatman partisil 5 silica column equilibrated in 1 ml/min 70% cyclohexane: 30% ethyl acetate; retention times: DHT, 6.8-7.2 min.; androstanediol, 7.6-8.0 min.; T, 9.1-9.7 min.). The HPLC system consisted of a Waters Model 680 Gradient System equipped with a Hitachi Model 655α autosampler, Applied Biosystems Model 757 -variable UV detector, and a Radiomatic Model A120 radioactivity analyzer. The conversion of T to DHT was monitored using the radioactivity flow detector by mixing the HPLC effluent with one volume of Flo Scint 1 (Radiomatic). Under the conditions described, the production of DHT was linear for at least 25 min. The only steroids observed with the human prostate and scalp preparations were T, DHT and androstanediol.
Compounds were dissolved in 100% ethanol. The compound to be tested was pre-incubated with the enzyme (either 5α-reductase type 1 or 2) prior to initiation by addition of substrate testosterone. IC50 values represent the concentration of inhibitor required to decrease enzyme conversion of testosterone to dihydrotestosterone by 50% of the control. IC50 values were determined using a 6 point titration where the concentration of the inhibitor was varied from 0.1 to 1000 nM. Representative compounds of this invention were tested in the above described assay for 5α-reductase type 1 and type 2 inhibition.
Regarding `CN1C[C@H]2[C@@H]3CC[C@H](O)[C@@]3(C)CC[C@@H]2[C@@]2(C)CCC(=O)C=C12` [XIII, 6-methyl-17-hydroxy-6-aza-androst-4-en-3-one], the IC50 was less than 100 nM.

Staying with this experiment, now noted: 5α-reductase type 1; pH 6.5; 6 point titration, 0.1 to 1000 nM; "under about"; read-out: IC50 for inhibition of the type 1 isozyme.
On to `CN1C[C@H]2[C@@H]3CCC[C@@]3(C)CC[C@@H]2[C@@]2(C)CCC(=O)C=C12` [XII, 6-methyl-6-aza-androst-4-en-3-one], for which the IC50 was less than 100 nM.
With `CC(C)CCC[C@@H](C)[C@H]1CC[C@H]2[C@@H]3CNC4=CC(=O)CC[C@]4(C)[C@H]3CC[C@]12C` [XV, 6-aza-cholest-4-en-3-one], the IC50 is less than 100 nM.
On to `CN1C[C@H]2[C@@H]3CC[C@H](OC(=O)NC(C)(C)C)[C@@]3(C)CC[C@@H]2[C@@]2(C)CCC(=O)C=C12` [XIV, 6-methyl-17-t-butylcarbamoyloxy-6-aza-androst-4-en-3-one], for which the IC50 was less than 100 nM.
As to `CC(C)CCC[C@@H](C)[C@H]1CC[C@H]2[C@@H]3CN(C)C4=CC(=O)CC[C@]4(C)[C@H]3CC[C@]12C` [XVI, 6-methyl-6-aza-cholest-4-en-3-one], the IC50 is less than 100 nM.
Turning to `CN1C[C@@H]2[C@H](CC[C@]3(C)C(=O)CC[C@@H]23)[C@@]2(C)CCC(=O)C=C12` [VII, 6-methyl-6-aza-androst-4-en-3,17-dione], the IC50 is less than 100 nM.
With `CCC[C@H]1CC[C@H]2[C@@H]3CN(C)C4=CC(=O)CC[C@]4(C)[C@H]3CC[C@]12C` [X, 6-methyl-17-propyl-6-aza-androst-4-en-3-one], the IC50 is less than 100 nM.
